Publication PMC4736406 (Stem Cells International, 2016)
Where a name gives a salt, the structure may show the parent alone.

Assays:
[1] = plasma; no reference given; read-out: C max (maximum plasma concentration of the drug); cited from earlier work
[2] = test system: hiPSC derived hepatocytes (hiPS-HEP); experiment: Image based high content analysis (HCA), fixed and live assays, in hiPSC derived hepatocytes;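 further: hiPS-HEP obtained from ChiPSC4 through definitive endoderm under serum- and feeder-free conditions in 96-well plates, fluorescence imaging, each concentration run in triplicate wells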
Description: (§1) For hepatic differentiation, a serum- and feeder-free procedure recapitulating liver development was applied. First, ChiPSC4 was guided to differentiate into definitive endoderm using the Cellartis DE Diff Kit (Takara Bio Europe AB; Y30030), containing complete media and coating solution for differentiation of hPSC to DE cells in 2D culture. On day 7 of differentiation, the DE cells were enzymatically dissociated and reseeded into fibronectin coated 96-well plates. […] Wells of 96-well plates were coated by adding fibronectin solution 0.15 mL per cm^2 to the wells and let to incubate for >60 min at RT. […] Next, the cell suspension was centrifuged for 5 min at 300 g at RT, the supernatant was removed, and the cell pellet was resuspended in warm Hepatocyte Thawing and Seeding medium (Cellartis Hepatocyte Diff Kit; Takara Bio Europe AB; Y30050). Prior to seeding of cells, excess coating was removed and 150 K DE cells/cm^2 were seeded in the 96-well plates. On days 9 and 11 (counted from the start of ChiPSC4 differentiation), medium was changed using Hepatocyte Progenitor Medium (Cellartis Hepatocyte Diff Kit).
(§2) The cells were treated for 48 h with compounds at varying concentrations (half log dilution from the top concentration). […] The stock solutions were prepared in DMSO or water and were diluted in culture medium to obtain the final concentration. Each concentration was assayed in triplicate wells. Vehicle control wells were included and the final DMSO concentration in the medium never exceeded 0.5% (v/v). Each batch had two plates each for fixed and live assays.
(§3) LipidTOX Green neutral lipids and LipidTox Red phospholipidosis were used for identifying neutral lipid and phospholipid formation within the cells. MMP changes (Δψm) within the cell were measured using MitoTracker orange. Carboxy-H2DCFDA (6-carboxy-2′,7′-dichlorodihydrofluorescein diacetate) an acetylated fluorescent was used for measuring ROS. And finally, TOTO-3 was used for assessing PMP.
(§4) The fluorescence probes were grouped into two sets according to their optical compatibility and requirement of fixed or live material. […] The fluorescent probes for neutral lipids and phospholipids required the cells to be fixed and were assigned to the fixed assay. The probes MitoTracker orange, carboxy-H2DCFDA, and TOTO-3 were assigned to the live assay.
(§5) Following compound incubation, probes were administered to the cultures of the live assay. […] After incubation for 45 min at optimal cell culture conditions, the cells were changed to phenol red (PR) free medium for live cell imaging. For fixed assay, LipidTox Red probe was added with the compounds, and after 48 h the cells were fixed in 4% PFA supplemented with 1X Hoechst stain for 30 min at room temperature. Subsequently, cells were washed with PBS^+/+ and 1X LipidTOX Green stain diluted in PBS^+/+ was incubated with the cells for 30 min at room temperature. The plates were imaged without removing the buffer with probe.
(§6) The cells were imaged using an Olympus ScanR system. Prior to image acquisition, the heating system and CO2 gas flow were started to ensure optimal conditions in the ScanR chamber for live cell analysis. The incubator was set to 37°C with 5% CO2 and relative humidity of 90%. […] 20X long distance objective with NA 0.45 was used to image distinct fluorescence channels. In order to cover the entire well and also to capture maximum cell events sixteen fields per well (4 × 4 tile grid spread equally) were imaged. The channel exposure time for LipidTOX Green, LipidTOX Red, MitoTracker orange, and carboxy-H2DCFHDA were set based on the fluorescence of the negative control wells and were set constant within each plate. Exposure time for Hoechst and TOTO-3 was set in the range of 1–10 ms depending on cellular fluorescence intensity.
(§7) The acquired images were analyzed using ScanR analysis program from Olympus.

[3] = test system: HepG2 cells; experiment: Image based high content analysis (HCA), fixed and live assays, in HepG2
Description: Briefly, the cells were grown in DMEM supplemented with 10% heat inactivated FBS, 1% penicillin-streptomycin (PEST), 1% sodium pyruvate, and 1% nonessential amino acids. Cells were passaged at 1 : 8 or 1 : 6 every 3-4 days when they reach 75–80% confluence. Seeding density was optimized for HCA application to ensure that the cells were in a monolayer (5000 cells per well in 96-well plates) for precise imaging. The cells were grown for 48 h to attach and stabilize. The experiments performed with HepG2 cells were designed to ensure that each assay was performed with cells in a similar growth phase.
Each concentration was assayed in triplicate wells. […] The experimental process is illustrated in Figure 2.
And finally, TOTO-3 was used for assessing PMP.
The cells were imaged using an Olympus ScanR system.
All other fluorescence signals were considered as subobjects.

[4] = test system: hiPSC derived hepatocytes (hiPS-HEP);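 further: hiPS-HEP obtained from ChiPSC4 through definitive endoderm under serum- and feeder-free conditions in 96-well plates, fluorescence imaging, each concentration run in triplicate wells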
Description: as §1, §2, §3, §4, §5, §6, §7

[5] = hiPSC derived hepatocytes, at concentrations higher than 100 μM, similar to control up to 100 μM

CN(C)[C@@H]1C(O)=C(C(N)=O)C(=O)[C@@]2(O)C(O)=C3C(=O)c4c(O)cccc4[C@@](C)(O)[C@H]3C[C@@H]12 [Tetracycline, tetracycline hydrochloride]
Cmax [1]: 14.2 µM
IC50/EC50 Nucleus Area ([2]; hiPS-HEP, fixed assay, 48 h): 105 µM
IC50/EC50 Nucleus Cell count ([2]; hiPS-HEP, fixed assay, 48 h): 432 µM
IC50/EC50 Nucleus MI ([2]; hiPS-HEP, fixed assay, 48 h): 211 µM
IC50/EC50 Steatosis Area ([2]; hiPS-HEP, fixed assay, 48 h): 213 µM
IC50/EC50 Steatosis Count ([2]; hiPS-HEP, fixed assay, 48 h): 184 µM
IC50/EC50 Steatosis MI ([2]; hiPS-HEP, fixed assay, 48 h): 418 µM
IC50/EC50 Nucleus Area ([2]; hiPS-HEP, live assay, 48 h): 211 µM
IC50/EC50 Nucleus Cell count ([2]; hiPS-HEP, live assay, 48 h): 243 µM
IC50/EC50 Nucleus MI ([2]; hiPS-HEP, live assay, 48 h): 380 µM
IC50/EC50 ROS MI ([2]; hiPS-HEP, live assay, 48 h): 160 µM
Increase of mean nuclear intensity [2, 5]: 12%
Increase of nuclear area [2, 5]: 14%
Increase of PMP compared to the control ([2]; hiPSC derived hepatocytes, at the highest concentration): 8%
Significant changes on MMP ([3]; HepG2): not detected
IC50/EC50 Nucleus Area ([3]; HepG2, fixed assay, 48 h): 464 µM
IC50/EC50 Nucleus Cell count ([3]; HepG2, fixed assay, 48 h): 558 µM
IC50/EC50 Nucleus MI ([3]; HepG2, fixed assay, 48 h): 348 µM
IC50/EC50 Steatosis Area ([3]; HepG2, fixed assay, 48 h): 287 µM
IC50/EC50 Steatosis Count ([3]; HepG2, fixed assay, 48 h): 36.3 µM
IC50/EC50 Steatosis MI ([3]; HepG2, fixed assay, 48 h): 361 µM
IC50/EC50 MMP MI ([3]; HepG2, live assay, 48 h): 265 µM
IC50/EC50 Nucleus Area ([3]; HepG2, live assay, 48 h): 336 µM
IC50/EC50 Nucleus Cell count ([3]; HepG2, live assay, 48 h): 836 µM
IC50/EC50 Nucleus MI ([3]; HepG2, live assay, 48 h): 959 µM
IC50/EC50 ROS MI ([3]; HepG2, live assay, 48 h): 1149 µM
MEC, PMP mean intensity ([3]; human, 48 h): 1000 µM
MEC, ROS mean intensity ([3]; human, 48 h): 1000 µM
MEC, nuclear changes area (NC, A) ([3]; human, 48 h): 316 µM
MEC, phospholipidosis mean intensity (PL, MI) ([3]; human, 48 h): 100 µM
MEC, steatosis droplet count (S, C) ([3]; human, 48 h): 100 µM
MEC, steatosis mean intensity (S, MI) ([3]; human, 48 h): 100 µM
Minimal effective concentration (MEC), viability cell count (V, CC) ([3]; human, 48 h): 316 µM
Cytotoxic effects [4]: minimal cytotoxic effects
Phospholipid parameters / accumulation of phospholipids [4]: not detected
Significant changes in PMP [4]: did not generate any significant changes
Significant changes on MMP [4]: not detected
Concentration at which increase in lipid accumulation / lipid droplets was observed ([4]; human, 48 h): 32 µM
Concentration at which mitochondrial membrane potential (MMP) increased ([4]; human, 48 h): 32 µM
Concentration at which nuclear changes were evident (nuclear intensity and area) ([4]; human, 48 h): 320 µM
Concentration at which oxidative stress increased ([4]; human, 48 h): 100 µM
MEC, ROS mean intensity ([4]; human, 48 h): 316 µM
MEC, nuclear changes area (NC, A) ([4]; human, 48 h): 316 µM
MEC, steatosis droplet count (S, C) ([4]; human, 48 h): 316 µM
MEC, steatosis mean intensity (S, MI) ([4]; human, 48 h): 1000 µM
MEC, viability cell count (V, CC) ([4]; human, 48 h): 1000 µM
Minimal effective concentration (MEC), viability cell count (V, CC) ([4]; human, 48 h): 1000 µM

C[C@H]1c2cccc(O)c2C(=O)C2=C(O)[C@]3(O)C(=O)C(C(N)=O)=C(O)[C@@H](N(C)C)[C@@H]3[C@@H](O)[C@@H]21 [Doxycycline, doxycycline]
Cmax [1]: 8.8 µM
IC50/EC50 Nucleus Area ([2]; hiPS-HEP, fixed assay, 48 h): 96.1 µM
IC50/EC50 Nucleus Cell count ([2]; hiPS-HEP, fixed assay, 48 h): 107 µM
IC50/EC50 Nucleus MI ([2]; hiPS-HEP, fixed assay, 48 h): 47.2 µM
IC50/EC50 Steatosis Count ([2]; hiPS-HEP, fixed assay, 48 h): 115 µM
IC50/EC50 Steatosis MI ([2]; hiPS-HEP, fixed assay, 48 h): 441 µM
IC50/EC50 MMP MI ([2]; hiPS-HEP, live assay, 48 h): 644 µM
IC50/EC50 Nucleus Area ([2]; hiPS-HEP, live assay, 48 h): 204.3 µM
IC50/EC50 Nucleus Cell count ([2]; hiPS-HEP, live assay, 48 h): 69.4 µM
IC50/EC50 Nucleus MI ([2]; hiPS-HEP, live assay, 48 h): 120 µM
IC50/EC50 PMP MI ([2]; hiPS-HEP, live assay, 48 h): 26.9 µM
IC50/EC50 ROS MI ([2]; hiPS-HEP, live assay, 48 h): 10.5 µM
Concentration from which effects on plasma membrane permeability (PMP) start ([2]; hiPSC derived hepatocytes): 32 µM
Cell count reduction ([2]; hiPSC derived hepatocytes, at 100 μM): 50%
IC50/EC50 Nucleus Cell count ([3]; HepG2, fixed assay, 48 h): 165 µM
IC50/EC50 Nucleus MI ([3]; HepG2, fixed assay, 48 h): 892 µM
IC50/EC50 Steatosis Area ([3]; HepG2, fixed assay, 48 h): 398 µM
IC50/EC50 Steatosis Count ([3]; HepG2, fixed assay, 48 h): 260 µM
IC50/EC50 MMP MI ([3]; HepG2, live assay, 48 h): 622 µM
IC50/EC50 Nucleus Cell count ([3]; HepG2, live assay, 48 h): 120.3 µM
IC50/EC50 Nucleus MI ([3]; HepG2, live assay, 48 h): 153 µM
IC50/EC50 ROS MI ([3]; HepG2, live assay, 48 h): 115 µM
MEC, MMP mean intensity ([3]; human, 48 h): 1000 µM
MEC, PMP mean intensity ([3]; human, 48 h): 1000 µM
MEC, ROS mean intensity ([3]; human, 48 h): 316 µM
MEC, nuclear changes area (NC, A) ([3]; human, 48 h): 1000 µM
MEC, nuclear changes mean intensity (NC, MI) ([3]; human, 48 h): 1000 µM
MEC, steatosis droplet count (S, C) ([3]; human, 48 h): 316 µM
MEC, steatosis mean intensity (S, MI) ([3]; human, 48 h): 1000 µM
MEC, viability cell count (V, CC) ([3]; human, 48 h): 316 µM
Minimal effective concentration (MEC), viability cell count (V, CC) ([3]; human, 48 h): 100 µM
SRI (steatotic risk index) Lipid ([3]; human, 48 h): 36
SRI (steatotic risk index) ROS ([3]; human, 48 h): 36
TR (toxicity risk) ([3]; human, 48 h): 11.4
Effect on mitochondrial membrane [4]: concentration dependent depolarization of the mitochondrial membrane
Phospholipid parameters / accumulation of phospholipids [4]: no changes were detected
ROS levels [4]: unaffected
Concentration at which increase in lipid accumulation / lipid droplets was observed ([4]; human, 48 h): 320 µM
MEC, MMP mean intensity ([4]; human, 48 h): 1000 µM
MEC, PMP mean intensity ([4]; human, 48 h): 31.6 µM
MEC, nuclear changes mean intensity (NC, MI) ([4]; human, 48 h): 100 µM
MEC, steatosis droplet count (S, C) ([4]; human, 48 h): 316 µM
MEC, steatosis mean intensity (S, MI) ([4]; human, 48 h): 1000 µM
MEC, viability cell count (V, CC) ([4]; human, 48 h): 1000 µM
Minimal effective concentration (MEC), viability cell count (V, CC) ([4]; human, 48 h): 100 µM
SRI (steatotic risk index) Lipid ([4]; human, 48 h): 36
SRI (steatotic risk index) ROS ([4]; human, 48 h): >114
TR (toxicity risk) ([4]; human, 48 h): 3.6
